Data: US5846986A, “Therapeutic phenoxyalkylazoles and phenoxyalkylazines” (Sanofi, priority 1997, dated 1998)

System: panel of 10 human rhinopicornavirus serotypes HRV-3, -4, -5, -9, -16, -18, -38, -66, -75 and -67 (panel B)
Assay: automated TCID-50 assay, HeLa cells, panel B of 10 human rhinopicornavirus serotypes
Format: cell-based
Conditions: minimum concentration required to inhibit 50% of the tested serotypes, number of serotypes tested in column N, 3 days, 33° C.
Method: The MIC values were determined by an automated tissue culture infectious dose 50% (TCID-50) assay. HeLa cells in monoloyers in 96-well cluster plates were infected with a dilution of picornavirus which had been shown empirically to produce 80% to 100% cytopathic effect (CPE) in 3 days in the absence of drug. The compound to be tested was serially diluted through 10, 2-fold cycles and added to the infected cells. After a 3 day incubation at 33° C. and 2.5% carbon dioxide, the cells were fixed with a 5% solution of glutaraldehyde followed by staining with a 0.25% solution of crystal violet in water. […]
In the above test procedures, representative compounds of formula I were tested against some the serotypes from either a panel of fifteen human rhinopicornavirus (HRV) serotypes, (noted in the table as panel T) namely, HRV-2, -14, -1A, -1B, -6, -21, -22, -15, -25, -30, -50, -67, -89, -86 and -41 or against some of the serotypes from a panel of 10 human rhinopicornavirus serotypes namely HRV-3, -4, -5, -9, -16, -18, -38, -66, -75 and -67, (noted in the table as panel B) and the MIC value, expressed in micrograms per milliliter […], for each rhinopicornavirus serotype was determined for each picornavirus, example le is given as an example of the data. […]

Substance: 3-Methyl-5-[3-[4-(2-methyl-tetrazol-5-yl)-2,6-dimethylphenoxy]-propyl]-thiazole [Example 11]
- Mic50: 0.148 µg/mL
